From patent US11839613B2, “Pyrimidine derivatives as PGE2 receptor modulators” (IDORSIA PHARMACEUTICALS LTD, priority 2017, dated 2023)

Columns and labels:
PTGER4 (EP4) = PTGER4 (EP4) (Homo sapiens (Human), UniProt P35408); test: cell-based
PTGER2 (EP2) = PTGER2 (EP2) (Homo sapiens (Human), UniProt P43116); test: hEP2 b-arrestin assay (PathHunter HEK 293 PTGER2 b-arrestin cells); format: cell-based; conditions: antagonistic activity, beta-arrestin assay; read-out: hEP2 b-arr IC50
Procedure: Plate is pre-incubated 15 minutes at 37° C. Then five microliters of PGE2 (final conc. 5 μM) are transferred into the assay plate. Plate is incubated 120 minutes at 37° C.
(each concentration is measured in duplicate)

Sequence of PTGER4 (EP4) (P35408 whole entry): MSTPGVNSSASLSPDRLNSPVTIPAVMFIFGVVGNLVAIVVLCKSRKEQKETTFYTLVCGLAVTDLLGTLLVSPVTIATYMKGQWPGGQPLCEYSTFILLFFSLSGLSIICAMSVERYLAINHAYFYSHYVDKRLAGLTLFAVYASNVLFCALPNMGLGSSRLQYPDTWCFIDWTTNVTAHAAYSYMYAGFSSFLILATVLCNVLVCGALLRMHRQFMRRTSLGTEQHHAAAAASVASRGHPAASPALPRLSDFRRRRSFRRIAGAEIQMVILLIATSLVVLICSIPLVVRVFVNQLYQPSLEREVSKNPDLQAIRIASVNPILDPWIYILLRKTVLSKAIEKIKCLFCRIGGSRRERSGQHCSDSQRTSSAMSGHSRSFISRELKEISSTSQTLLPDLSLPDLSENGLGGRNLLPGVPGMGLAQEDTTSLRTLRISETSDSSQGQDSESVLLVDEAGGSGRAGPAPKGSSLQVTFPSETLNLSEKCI
Sequence of PTGER2 (EP2) (P43116 whole entry): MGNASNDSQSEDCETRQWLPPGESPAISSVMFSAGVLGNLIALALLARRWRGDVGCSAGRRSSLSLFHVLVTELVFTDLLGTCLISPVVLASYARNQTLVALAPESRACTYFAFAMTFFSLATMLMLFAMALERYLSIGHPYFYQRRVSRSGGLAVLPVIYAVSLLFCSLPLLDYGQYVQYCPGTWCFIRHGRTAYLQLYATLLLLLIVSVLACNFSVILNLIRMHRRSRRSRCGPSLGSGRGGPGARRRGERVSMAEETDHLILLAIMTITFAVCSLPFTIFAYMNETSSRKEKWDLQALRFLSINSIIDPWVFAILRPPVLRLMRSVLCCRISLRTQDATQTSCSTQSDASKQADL

Structure (SMILES)	IC50 (PTGER4 (EP4)) [nM]	IC50 (PTGER2 (EP2)) [nM]
CCCc1cc(-c2cc(NCCc3cc4c(cc3OC)OCCO4)ncn2)ccc1C(C)C(=O)O (racemic) [Example 401, rac-2-(4-{6-[2-(7-Methoxy-2,3-dihydro-benzo[1,4]dioxin-6-yl)-ethylamino]-pyrimidin-4-yl]-2-propyl-phenyl)-propionic acid]	114	331
O=C(O)C1Cc2cc(-c3cc(NCCc4ccc5sccc5c4)ncn3)ccc2O1 (racemic) [Example 474, rac-5-[6-(2-Benzo[b]thiophen-5-yl-ethylamino)-pyrimidin-4-yl]-2,3-dihydro-benzofuran-2-carboxylic acid]	914	272
CCCc1cc(-c2cc(NCCc3ccc4sccc4c3)ncn2)ccc1C(C)C(=O)O (racemic) [Example 481, rac-2-{4-[6-(2-Benzo[b]thiophen-5-yl-ethylamino)-pyrimidin-4-yl]-2-propyl-phenyl}-propionic acid]	63	328
CCCc1cc(-c2cc(NCCc3ccc4sccc4c3F)ncn2)ccc1C(C)C(=O)O (racemic) [Example 482, rac-2-(4 -{6-[2-(4-Fluoro-benzo[b]thiophen-5-yl)-ethylamino]-pyrimidin-4-yl}-2-propyl-phenyl)-propionic acid]	91	444
CCCc1cc(-c2cc(NCCc3cc4c(cc3OCC)OCCO4)ncn2)ccc1C(C)C(=O)O (racemic) [Example 487, rac-2-(4-{6-[2-(7-Ethoxy-2,3-dihydro-benzo[1,4]dioxin-6-yl)-ethylamino]-pyrimidin-4-yl}-2-propyl-phenyl)-propionic acid]	136	59
CCOc1cc(-c2cc(NCCc3cc(F)c4sccc4c3)ncn2)ccc1C(=O)O [Example 361, 2-Ethoxy-4-{6-[2-(7-fluoro-benzo[b]thiophen-5-yl)-ethylamino]-pyrimidin-4-yl}-benzoic acid]	116	187
CCOc1cc(-c2cc(NCCc3cc(F)c4sccc4c3)ncn2)sc1C(=O)O [Example 362, 3-Ethoxy-5-{6-[2-(7-fluoro-benzo[b]thiophen-5-yl)-ethylamino]-pyrimidin-4-yl}-thiophene-2-carboxylic acid]	6	20
CCOc1cc(-c2cc(NCCc3cc(F)c4sccc4c3)ncn2)ccc1CC(=O)O [Example 363, (2-Ethoxy-4-{6-[2-(7-fluoro-benzo[b]thiophen-5-yl)-ethylamino]-pyrimidin-4-yl}-phenyl)-acetic acid]	59	479
CSc1cc(-c2cc(NCCc3cc(F)c4sccc4c3)ncn2)ccc1C(=O)O [Example 364, 4-{6-[2-(7-Fluoro-benzo[b]thiophen-5-yl)-ethylamino]-pyrimidin-4-yl}-2-methylsulfanyl-benzoic acid]	52	151
CCOc1cc(-c2cc(NCCc3ccc4sccc4c3F)ncn2)ccc1C(=O)O [Example 365, 2-Ethoxy-4-{6-[2-(4-fluoro-benzo[b]thiophen-5-yl)-ethylamino]-pyrimidin-4-yl}-benzoic acid]	149	77
O=C(O)c1ccc(-c2cc(NCCc3ccc4sccc4c3F)ncn2)cc1OC1CCC1 [Example 366, 2-Cyclobutoxy-4-{6-[2-(4-fluoro-benzo[b]thiophen-5-yl)-ethylamino]-pyrimidin-4-yl}-benzoic acid]	119	84
CCOc1cc(-c2cc(NCCc3ccc4sccc4c3F)ncn2)sc1C(=O)O [Example 367, 3-Ethoxy-5-{6-[2-(4-fluoro-benzo[b]thiophen-5-yl)-ethylamino]-pyrimidin-4-yl}-thiophene-2-carboxylic acid]	2	7
CCOc1cc(-c2cc(NCCc3ccc4sccc4c3F)ncn2)ccc1CC(=O)O [Example 368, (2-Ethoxy-4-{6-[2-(4-fluoro-benzo[b]thiophen-5-yl)-ethylamino]-pyrimidin-4-yl}-phenyl)-acetic acid]	66	221
